Measured values as given in article PMC3070406 (The Pediatric infectious disease journal, 2011).
Values joined by “and” are separate entries in the source; they are usually repeats but may differ in a detail not shown here. Equal entries are not always repeated.

How the values were obtained:
[1] = tested on: influenza infection; design: species or system human; details: in vivo, po
[2] = tested on: NA of influenza A and B virus isolates; assay type: biochemical, influenza A and B viruses

Row | Compound | duration of symptoms after commencing antiviral treatment (mean) [1] | Susceptibility to zanamivir [2]
1 | CCOC(=O)C1=C[C@@H](OC(CC)CC)[C@H](NC(C)=O)[C@@H](N)C1 [oseltamivir] | 33.0 ± 8.3 days and 26 ± 17.9 days | –
2 | CC(=O)N[C@H]1[C@H]([C@H](O)[C@H](O)CO)OC(C(=O)O)=C[C@@H]1N=C(N)N [zanamivir] | – | susceptible
